Measured values taken from patent US5736565A, “Therapeutic compounds suitable for the treatment of diseases connected with glutathione deficiency, process for their preparation, and pharmaceutical compositions containing same” (Prospa B.V., priority 1992, dated 1998).
Where two headings read alike, the source gives them in different places. Peptide text beside a SMILES is read from it.

Legend:
[1] = tested on: glutathione (GSH) in hepatocytes; experiment: Tests in vitro: glutathione content of isolated rat hepatocytes; format: cell-based; details: for activity at 250 µM / activity at 500 µM / activity at 1000 µM / activity at 2500 µM / activity at 5000 µM: read-out: Glutathione concentrations; for activity at 1000 µM: DEM + 1.0 mM; for activity at 5000 µM: DEM + 5.0 mM
Description: The experimental model envisages the isolation of hepatic parenchymal cells of rats following perfusion, with collagenase, of the isolated organ. Prior to each test, hepatocytes vitality was quantified by Tripan Blue […]. Only the cells with a vitality greater than 90% were utilized. Hepatocytes were resuspended, at a concentration of 10^6 cells/ml, in a saline medium (Krebs Heinseleit) at ph 7.4, and then placed into rotating flasks in the presence of O2 (95%) and CO2 (5%), at 37° C. Cells keep vital for 5-6 hours at least.
[…] The cells were then washed for 30 min. and incubated with various concentrations of the test substance (from 0.25 to 5 mM).
By this experimental model it is possible to test the effect of the substance by evaluating the hepatic functionality determined by measurements of the vitality (Tables Nos. 3, 4, and 5) and of glutathione content (Tables 6, 7, and 8).
In the Tables 3-8 herein below reported, the controls are represented by normal hepatocytes, not treated either with DEM or with compound (I).

[2] = tested on: reactive oxygen species (ROS) production of human spermatozoa; experiment: Effect of PSC on the spermatic production of free radicals (chemiluminescence with luminol); format: cell-based
Source text: Free radicals production was investigated under basal and maximal conditions (after A23187 addition) on controls and in the presence of PSC.
A23187 is an ionophore bivalent cation that, under physiological conditions, promotes acrosomial reaction. It is used being capable of stimulating the production of superoxide radicals (Aitken R. J. et al., Generation of reactive oxygen species, lipid peroxidation and human sperm function, J. of Reproduction, 40, 183-197, 1989).
Seminal fluid was obtained from 11 donors previously subjected to a complete medical check-up, to exclude the presence, if any, of sexual transmission diseases. Samples were obtained by masturbation and analysed within 1.5 hrs thereafter.
Spermatozoa were separated from seminal fluid by three centrifugation cycles (500×g for 5 min) and resuspended in medium BWW (Biggers et al., "The culture of mouse embryos in vitro", Daniel J. C. ed., Methods in mammalian embryology, 86-116, 1971) at a concentration of 20×10^6 /ml.
The production of reactive oxygen species (ROS) was evaluated by chemiluminescence with luminol: human spermatozoa suspensions at a concentration of […] in a volume of 500 μl were subjected to the action of luminol (LM 100 mmol/l in dimethyl sulphoxide).Said spermatic suspension was then diluted with 500 μl of medium BWW alone (control) or containing PSC (10 mM); other spermatic suspensions contained A23187 (0.05 mg/ml) alone (positive control) and, respectively, A23187 (0.05 mg/ml)+PSC (10 mM).
3 Minutes later, the chemiluminescent signal was recorded. Reactive oxygen species (ROS) production was expressed as photons brust (cpm) recorded by a luminometer Berthold L 9500.

[3] = tested on: malonic aldehyde (MDA) in brain; experiment: PSC effect on lipid peroxidation (MDA) in rat SNC; format: in vivo, male Wistar rats; details: old animals, 100 mg/kg i.p.
Source text: Since lipid peroxidation, i.e. the oxidation of an α-methylenic bridge of a polyunsaturated fatty acid, is a process that, through the formation of intermediates (such as lipid peroxides and hydroperoxides), provide carbonyl fragments, including malonic aldehyde (MDA), efforts were made by the Applicant to check whether administration of the test molecule might reduce MDA levels in the SNC, which are closely related to the presence of free radicals and, consequently, to a potential neuronal damage, which is strongly responsible for the induction of age-related alterations.
The test was carried out on male Wistar rats stabled in groups of 5/cage, at 21° C. and constant light/dark cycle, fed with standard laboratory food.
[…] was assayed both on young and old rats, prior to and after treatment with PSC (100 mg/kg). A few hours after treatment, all animals were sacrificed and their brain readily excised. MDA was determined by a micromethod modified according to Slater and Sawyer (Slater T. F. and Sawyer B. C., 1971, J. Biochem., Tokio 8: 2180). The tissue was maintained 10 min. at 0° C. in 0.05M Tris-HCl buffer, pH 7.4, and homogenized. […] After cooling, the absorbance at 532 nm was recorded by a spectrophotometer. […] Proteins were measured by Smith's method using, as a reagent, bicinchoninic acid (BCA) (Smith et al., 1985, Anal. Biochem., 27, 502).

[4] = Rattus norvegicus, Hepatocyte, 0 h, 0 time
[5] = Rattus norvegicus, Hepatocyte, 0.5 h, 30 min
[6] = Rattus norvegicus, Hepatocyte, 1 h, 1 hr
[7] = Rattus norvegicus, Hepatocyte, 2 h, 2 hrs
[8] = Rattus norvegicus, Hepatocyte, 4 h, 4 hrs

In the case of CC(=O)SC[C@H](NC(=O)[C@@H]1CCC(=O)N1)C(=O)O [PSC, 2-(S)-(2-pyrrolidone-5-(S)-carbonyl amido)-3-acetylmercapto propionic acid] (HELM PEPTIDE1{[Glp].C}|PEPTIDE2{[ac]}$PEPTIDE1,PEPTIDE2,2:R3-1:R2$$$V2.0), the “increase in the GSH content” value ([1]; DEM-pretreated hepatocytes, 2.5 and 5 mM) is reported as “greater than 170%”, the activity at 250 µM ([1]; Rattus norvegicus, Hepatocyte, 0 h, DEM + 0.25 mM, 0 time) is reported as 28% and the activity at 500 µM ([1]; Rattus norvegicus, Hepatocyte, 0 h, DEM + 0.50 mM, 0 time) is reported as 28.4%. It also gave an activity at 1000 µM [1, 4] of 25.8%, an activity at 2500 µM ([1]; Rattus norvegicus, Hepatocyte, 0 h, DEM + 2.5 mM, 0 time) of 23.9% and an activity at 5000 µM [1, 4] of 26.6%. It also gave an activity at 250 µM ([1]; Rattus norvegicus, Hepatocyte, 0 h, no DEM, 0.25 mM, 0 time) of 104%, an activity at 500 µM ([1]; Rattus norvegicus, Hepatocyte, 0 h, no DEM, 0.50 mM, 0 time) of 107% and an activity at 2500 µM ([1]; Rattus norvegicus, Hepatocyte, 0 h, no DEM, 2.5 mM, 0 time) of 99.5%. It also gave an activity at 250 µM ([1]; Rattus norvegicus, Hepatocyte, 0.5 h, DEM + 0.25 mM, 30 min) of 42.8%, an activity at 500 µM ([1]; Rattus norvegicus, Hepatocyte, 0.5 h, DEM + 0.50 mM, 30 min) of 45.7% and an activity at 1000 µM [1, 5] of 52.7%. The activity at 2500 µM ([1]; Rattus norvegicus, Hepatocyte, 0.5 h, DEM + 2.5 mM, 30 min) was 61.1%, the activity at 5000 µM [1, 5] was 69.4% and the activity at 250 µM ([1]; Rattus norvegicus, Hepatocyte, 0.5 h, no DEM, 0.25 mM, 30 min) was 117%. The activity at 500 µM ([1]; Rattus norvegicus, Hepatocyte, 0.5 h, no DEM, 0.50 mM, 30 min) was 144%, the activity at 2500 µM ([1]; Rattus norvegicus, Hepatocyte, 0.5 h, no DEM, 2.5 mM, 30 min) was 158% and the activity at 250 µM ([1]; Rattus norvegicus, Hepatocyte, 1 h, DEM + 0.25 mM, 1 hr) was 54.8%. The activity at 500 µM ([1]; Rattus norvegicus, Hepatocyte, 1 h, DEM + 0.50 mM, 1 hr) was 74.2%, the activity at 1000 µM [1, 6] was 71% and the activity at 2500 µM ([1]; Rattus norvegicus, Hepatocyte, 1 h, DEM + 2.5 mM, 1 hr) was 89%. For the same compound, the activity at 5000 µM [1, 6] was 92%, the activity at 250 µM ([1]; Rattus norvegicus, Hepatocyte, 1 h, no DEM, 0.25 mM, 1 hr) was 134% and the activity at 500 µM ([1]; Rattus norvegicus, Hepatocyte, 1 h, no DEM, 0.50 mM, 1 hr) was 155%. For the same compound, the activity at 2500 µM ([1]; Rattus norvegicus, Hepatocyte, 1 h, no DEM, 2.5 mM, 1 hr) was 182%, the activity at 250 µM ([1]; Rattus norvegicus, Hepatocyte, 2 h, DEM + 0.25 mM, 2 hrs) was 81.2% and the activity at 500 µM ([1]; Rattus norvegicus, Hepatocyte, 2 h, DEM + 0.50 mM, 2 hrs) was 103%. The activity at 1000 µM [1, 7] was 96.7%, the activity at 2500 µM ([1]; Rattus norvegicus, Hepatocyte, 2 h, DEM + 2.5 mM, 2 hrs) was 119% and the activity at 5000 µM [1, 7] was 119%. For the same compound, the activity at 250 µM ([1]; Rattus norvegicus, Hepatocyte, 2 h, no DEM, 0.25 mM, 2 hrs) was 142%, the activity at 500 µM ([1]; Rattus norvegicus, Hepatocyte, 2 h, no DEM, 0.50 mM, 2 hrs) was 159% and the activity at 2500 µM ([1]; Rattus norvegicus, Hepatocyte, 2 h, no DEM, 2.5 mM, 2 hrs) was 191%. It also gave an activity at 250 µM ([1]; Rattus norvegicus, Hepatocyte, 4 h, DEM + 0.25 mM, 4 hrs) of 83%, an activity at 500 µM ([1]; Rattus norvegicus, Hepatocyte, 4 h, DEM + 0.50 mM, 4 hrs) of 138% and an activity at 1000 µM [1, 8] of 119%. For the same compound, the activity at 2500 µM ([1]; Rattus norvegicus, Hepatocyte, 4 h, DEM + 2.5 mM, 4 hrs) was 173%, the activity at 5000 µM [1, 8] was 191% and the activity at 250 µM ([1]; Rattus norvegicus, Hepatocyte, 4 h, no DEM, 0.25 mM, 4 hrs) was 146%. The activity at 500 µM ([1]; Rattus norvegicus, Hepatocyte, 4 h, no DEM, 0.50 mM, 4 hrs) was 207%, the activity at 2500 µM ([1]; Rattus norvegicus, Hepatocyte, 4 h, no DEM, 2.5 mM, 4 hrs) was 211% and the activation at 250 µM ([1]; Rattus norvegicus, Hepatocyte, DEM-pretreated hepatocytes, 0.25 mM, 4 hours, read-out: increase in GSH values) was roughly 80%. For the same compound, the activation at 500 µM ([1]; Rattus norvegicus, Hepatocyte, DEM-pretreated hepatocytes, 0.5 mM, 4 hours, read-out: increase in GSH values) was 130 to 140%, the activation at 1000 µM ([1]; Rattus norvegicus, Hepatocyte, DEM-pretreated hepatocytes, 1 mM, read-out: increase in the GSH content) was roughly 120% and the “restoring thiol groups and in particular GSH (in words)” value ([1]; in vitro) was “greatly effective in restoring thiol groups and in particular GSH”. For the same compound, the “permeability of the hepatocyte membrane (in words)” value ([1]; normal hepatocytes) was “clearly indicates the permeability of the hepatocyte membrane”, the “increase in basal GSH at 2.5 mM compared with 0.5 mM (in words)” value ([1]; normal hepatocytes, 4 hours) was “superimposable to that caused by concentrations five times lower (0.5 mM)” and the “increase in GSH basal values” ([1]; normal hepatocytes, concentrations from 0.5 mM, after 4 hrs, in respect of controls) was “greater than 180%”. The “free radicals production (in words)” value ([2]; basal and maximal conditions) was “caused a significant reduction in free radicals production”, the “ROS production, photons brust” value ([2]; medium + A23187 (0.05 mg/ml) + PSC (10 mM)) was 270.8 +/- 254 cpm and the “ROS production, photons brust” value ([2]; medium + PSC (10 mM), basal) was 243.7 +/- 235.2 cpm. The MDA [3] was 0.723 +/- 0.32 nmols/mg proteins.
